Data as given in patent US6653300B2, “Pyrazole compounds useful as protein kinase inhibitors” (Vertex Pharmaceuticals Incorporated, priority 2000, dated 2003).
Where two headings read alike, the source gives them in different places.

Tests used:
[1] = molecular target: T1, human Src kinase (Homo sapiens, UniProt P12931); assay: SRC inhibition assay (radioactivity-based or spectrophotometric assay); assay type: biochemical; conditions: recombinant human Src kinase, assay A or B
T1 construct: full length recombinant human Src kinase (from Upstate Biotechnology, cat. no. 14-117); purchased Upstate Biotechnology 14-117; host or cells: baculo viral cells
T1 sequence (P12931 whole entry): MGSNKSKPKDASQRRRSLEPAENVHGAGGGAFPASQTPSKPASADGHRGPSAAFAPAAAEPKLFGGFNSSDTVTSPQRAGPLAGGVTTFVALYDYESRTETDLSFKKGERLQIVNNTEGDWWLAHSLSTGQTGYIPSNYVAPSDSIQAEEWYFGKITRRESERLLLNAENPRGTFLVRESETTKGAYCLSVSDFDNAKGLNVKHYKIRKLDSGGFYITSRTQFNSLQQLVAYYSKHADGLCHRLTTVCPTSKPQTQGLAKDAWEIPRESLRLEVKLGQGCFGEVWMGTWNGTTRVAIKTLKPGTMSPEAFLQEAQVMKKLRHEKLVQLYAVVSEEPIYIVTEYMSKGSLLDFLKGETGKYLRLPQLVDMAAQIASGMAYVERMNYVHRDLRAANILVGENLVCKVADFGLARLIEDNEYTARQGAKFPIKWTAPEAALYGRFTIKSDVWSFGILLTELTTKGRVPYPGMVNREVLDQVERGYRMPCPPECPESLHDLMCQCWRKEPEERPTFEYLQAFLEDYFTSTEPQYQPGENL
Procedure: The compounds were evaluated as inhibitors of human Src kinase using either a radioactivity-based assay or spectrophotometric assay. The compounds were assayed as inhibitors of full length recombinant human Src kinase (from Upstate Biotechnology, cat. no. 14-117) expressed and purified from baculo viral cells. […] P-0275). […] In a typical assay, all the reaction components with the exception of ATP were pre-mixed and aliquoted into assay plate wells. […] The assay plate was incubated at 30° C. for 10 min before initiating the reaction with ^33P-ATP. After 20 min of reaction, the reactions were quenched with 150 μl of 10% trichloroacetic acid (TCA) containing 20 mM Na3PO4. The quenched samples were then transferred to a 96-well filter plate (Whatman, UNI-Filter GF/F Glass Fiber Filter, cat no. 7700-3310) installed on a filter plate vacuum manifold. Filter plates were washed four times with 10% TCA containing 20 mM Na3PO4 and then 4 times with methanol. 200 μl of scintillation fluid was then added to each well. The plates were sealed and the amount of radioactivity associated with the filters was quantified on a TopCount scintillation counter. The radioactivity incorporated was plotted as a function of the inhibitor concentration. The data was fitted to a competitive inhibition kinetics model to get the Ki for the compound. The ADP produced from ATP by the human recombinant Src kinase-catalyzed phosphorylation of poly Glu-Tyr substrate was quanitified using a coupled enzyme assay (Fox et al (1998) Protein Sci 7, 2249). In this assay one molecule of NADH is oxidised to NAD for every molecule of ADP produced in the kinase reaction. The disappearance of NADH can be conveniently followed at 340 nm. […] In a typical assay, all the reaction components with the exception of ATP were pre-mixed and aliquoted into assay plate wells. […] The absorbance change at 340 nm with time, the rate of the reaction, was monitored on a molecular devices plate reader. The data of rate as a function of the inhibitor concentration was fitted to competitive inhibition kinetics model to get the Ki for the compound.

[2] = molecular target: T2, GSK-3β (AA 1-420) (Homo sapiens, UniProt P49841); assay: Ki determination for the inhibition of GSK-3 (coupled enzyme system); assay type: biochemical; conditions: 20 μM ATP, 20 nM GSK-3β, 30° C.
T2 construct: GSK-3β (AA 1-420)
T2 sequence (P49841 whole entry, the tested form may be a part): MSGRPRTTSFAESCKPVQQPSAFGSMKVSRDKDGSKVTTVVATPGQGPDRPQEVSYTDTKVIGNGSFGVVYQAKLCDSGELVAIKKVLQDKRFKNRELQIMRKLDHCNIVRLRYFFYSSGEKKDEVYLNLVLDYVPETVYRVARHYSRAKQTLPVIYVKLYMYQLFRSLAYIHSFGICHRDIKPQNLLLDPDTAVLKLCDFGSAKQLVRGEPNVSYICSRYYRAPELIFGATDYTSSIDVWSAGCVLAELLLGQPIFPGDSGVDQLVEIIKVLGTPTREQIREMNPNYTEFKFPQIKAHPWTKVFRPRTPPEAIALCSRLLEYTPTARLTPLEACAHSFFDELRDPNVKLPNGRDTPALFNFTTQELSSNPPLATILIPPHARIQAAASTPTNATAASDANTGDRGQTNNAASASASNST
Procedure, shortened: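 GSK-3β (AA 1-420, 20 nM) was run in a pyruvate kinase/LDH-coupled NADH assay in 100 mM HEPES pH 7.5, 10 mM MgCl2, 25 mM NaCl, 1 mM DTT, 1.5% DMSO, with 300 μM phosphopeptide substrate. Compound (0.002–30 μM) was preincubated 10 min at 30° C, then 20 μM ATP was added.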

[3] = molecular target: T3, Aurora-2 (Homo sapiens, UniProt O14965); assay: Ki determination for the inhibition of Aurora-2 (coupled enzyme assay); assay type: biochemical; conditions: 70 nM Aurora-2, 30° C.
T3 sequence (O14965 1-403): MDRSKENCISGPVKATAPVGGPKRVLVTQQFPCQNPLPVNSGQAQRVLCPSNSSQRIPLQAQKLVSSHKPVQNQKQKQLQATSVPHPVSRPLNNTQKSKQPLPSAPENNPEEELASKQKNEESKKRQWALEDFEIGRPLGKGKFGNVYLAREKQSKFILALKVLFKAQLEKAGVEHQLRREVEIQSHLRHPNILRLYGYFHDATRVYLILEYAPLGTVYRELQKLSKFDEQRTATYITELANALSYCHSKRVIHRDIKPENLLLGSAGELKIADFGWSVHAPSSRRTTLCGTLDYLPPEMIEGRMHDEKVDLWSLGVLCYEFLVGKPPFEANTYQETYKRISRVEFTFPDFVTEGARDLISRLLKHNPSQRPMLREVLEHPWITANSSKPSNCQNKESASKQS
Procedure, shortened: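 Ki came from reaction rates plotted against inhibitor concentration, with rates taken as A340 decrease over 5 min at 30° C. Enzyme (70 nM final) was added after 10 min compound preincubation; stock buffer held […], 800 μM LRRASLG, PK/LDH coupling, pH 7.5.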

Row | Compound | Ki ([1]; read-out: Ki value for SRC) | melting point | Ki [2] | Ki ([1]; read-out: Ki value on SRC) | Ki [3]
1 | Cc1cc(Nc2cc(N3CCCCC3)nc(SCc3cccc(Cl)c3)n2)n[nH]1 [IIIa-34, [2-(3-Chloro-benzylsulfanyl)-6-(piperidin-1-yl)-pyrimidin-4-yl]-(5-methyl-2H-pyrazol-3-yl)-amine] | 1000 to 6000 nM | 234 to 235 °C | 100 to 1000 nM |  | 
2 | CC(=O)Nc1ccc(Sc2nc(Nc3cc(C)n[nH]3)cc(N3CCOCC3)n2)cc1 [IIIa-44, [2-(4-Acetamidophenylsulfanyl)-6-(morpholin-4-yl)-pyrimidin-4-yl]-(5-methyl-2H-pyrazol-3-yl)-amine] | 1000 to 6000 nM |  |  |  | 
3 | COc1cccc(Sc2nc(Nc3cc(C4CC4)[nH]n3)c3ccccc3n2)c1 [IIa-24, (5-Cyclopropyl-2H-pyrazol-3-yl)-[2-(3-methoxyphenylsulfanyl)-quinazolin-4-yl]-amine] |  |  | < 100 nM | < 100 nM | < 100 nM
4 | CC(=O)Nc1ccc(Sc2nc(Nc3cc(C)[nH]n3)c(C)c(-c3ccccc3)n2)cc1 [IIIa-21, [2-(4-Acetamido-phenyl-sulfanyl)-5-methyl-6-phenyl-pyrimidin-4-yl]-(5-methyl-2H-pyrazol-3-yl)-amine] | 1000 to 6000 nM | 276 to 277 °C | 1000 to 7000 nM |  | 
5 | COCCNc1cc(Nc2cc(C)[nH]n2)nc(SCc2ccc(S(=O)(=O)N3CCOCC3)cc2)n1 [IIIa-36, {6-(2-Methoxy-ethylamino)-2-[4-(morpholinesulfonyl)-benzylsulfanyl]-pyrimidin-4-yl}-(5-methyl-2H-pyrazol-3-yl)-amine] | 1000 to 6000 nM | 193 to 195 °C | 1000 to 7000 nM |  | 
6 | Cc1cc(Nc2cc(N3CCN(C)CC3)nc(SCc3ccc(S(=O)(=O)N4CCOCC4)cc3)n2)n[nH]1 [IIIa-37, {6-(4-methylpiperazin-1-yl)-2-[4-(morpholinesulfonyl)-benzylsulfanyl]-pyrimidin-4-yl}-(5-methyl-2H-pyrazol-3-yl)-amine] | 1000 to 6000 nM | 206 to 207 °C | 100 to 1000 nM |  | 
7 | Cc1cc(Nc2cc(-c3ccccc3)nc(Sc3ccc(NC(=O)CN(C)C)cc3)n2)n[nH]1 [IIIa-25, {2-[4-(2-Dimethylamino-acetylamino)-phenylsulfanyl]-6-phenyl-pyrimidin-4-yl}-(5-methyl-2H-pyrazol-3-yl)-amine] | 1000 to 6000 nM | 213 to 215 °C |  |  | 
8 | CC(=O)Nc1ccc(Sc2nc(Nc3cc(C)n[nH]3)cc(-c3ccc(OCCCN(C)C)cc3)n2)cc1 [IIIa-43, {2-(4-Acetamido-phenyl-sulfanyl)-6-[4-(3-dimethylamino-propoxy)-phenyl]-pyrimidin-4-yl}-(5-methyl-2H-pyrazol-3-yl)-amine] |  | 219 to 222 °C | 1000 to 7000 nM |  | 1000 to 10000 nM
9 | Cc1cc(Nc2nc(Nc3ccc(NC(=O)OC(C)(C)C)cc3)nc3ccccc23)n[nH]1 [IIc-60, [2-(4-tert-Butoxycarbonylamino-phenylamino)-quinazolin-4-yl]-(5-methyl-2H-pyrazol-3-yl)-amine] |  | 238 to 242 °C | 1000 to 7000 nM |  | < 100 nM
10 | COc1cccc2c(Nc3cc(C)[nH]n3)nc(Sc3ccc(NS(C)(=O)=O)cc3)nc12 [IIa-66, [8-Methoxy-2-(4-methylsulfonylamino-phenylsulfanyl)-quinazolin-4-yl]-(5-methyl-2H-pyrazol-3-yl)-amine] |  | 275 to 277 °C | 100 to 1000 nM |  | < 100 nM
11 | Cc1cc(Nc2nc(Sc3ccc(Br)cc3)nc3ccccc23)n[nH]1 [IIa-46, [2-(4-Bromophenylsulfanyl)-quinazolin-4-yl]-(5-methyl-2H-pyrazol-3-yl)-amine] |  | > 300 °C | < 100 nM |  | < 100 nM
12 | Cc1cc(Nc2cc(-c3ccccc3)nc(Sc3ccc(NC(=O)C(C)C)cc3)n2)n[nH]1 [IIIa-13, [2-(4-Isobutyrylylamino-phenylsulfanyl)-6-phenylpyrimidin-4-yl]-(5-methyl-2H-pyrazol-3-yl)-amine] | 1000 to 6000 nM | 201 to 202 °C |  |  | 
13 | Cc1cc(Nc2nc(Sc3ccc(C(=O)O)cc3)nc3ccccc23)[nH]n1 [IIa-43, [2-(4-Carboxyphenylsulfanyl)-quinazolin-4-yl]-(5-methyl-2H-pyrazol-3-yl)-amine] |  | 263 to 265 °C | < 100 nM |  | < 100 nM
14 | c1ccc(-c2cc(Nc3cc(C4CC4)[nH]n3)nc(Sc3ccc4ccccc4c3)n2)cc1 [IIIa-1, (5-Cyclopropyl-2H-pyrazol-3-yl)-[2-(naphtalen-2-ylsulfanyl)-6-phenylpyrimidin-4-yl]-amine] |  | 233 to 234 °C | 100 to 1000 nM | < 100 nM | 
15 | O=C(O)c1cccc(Sc2nc(Nc3cc(C4CC4)[nH]n3)c3ccccc3n2)c1 [IIa-26, [2-(3-Carboxyphenylsulfanyl)-quinazolin-4-yl]-(5-cyclopropyl-2H-pyrazol-3-yl)-amine] |  | > 300 °C | < 100 nM |  | < 100 nM

Second part, the compound after the results:

Row | Ki ([1]; read-out: Ki value for SRC) | melting point | Ki [2] | Ki ([1]; read-out: Ki value on SRC) | Ki [3] | Compound
16 |  | 222 °C | 100 to 1000 nM |  | 100 to 1000 nM | Cc1cc(Nc2nc(Nc3ccccc3CCO)nc3ccccc23)n[nH]1 [IIc-14, {2-[2-(2-Hydroxyethyl)phenylamino]-quinazolin-4-yl}-(5-methyl-2H-pyrazol-3-yl)-amine]
17 |  | 265 to 268 °C | 1000 to 7000 nM |  | < 100 nM | COc1cccc2c(Nc3cc(C4CC4)[nH]n3)nc(Sc3ccc(NC(C)=O)cc3)nc12 [IIa-72, [2-(4-Acetamido-phenylsulfanyl)-8-methoxy-quinazolin-4-yl]-(5-cyclopropyl-2H-pyrazol-3-yl)-amine]
18 |  | 248 to 252 °C | 1000 to 7000 nM |  | < 100 nM | CCc1cc(Nc2nc(Nc3cc(CC)[nH]n3)c3ccccc3n2)n[nH]1 [IIc-69, (5-Ethyl-2H-pyrazol-3-yl)-[2-(5-ethyl-2H-pyrazol-3-ylamino)-quinazolin-4-yl]-amine]
19 |  | 189 °C | 100 to 1000 nM |  | < 100 nM | c1ccc(CCCNc2nc(Nc3cc(C4CC4)[nH]n3)c3ccccc3n2)cc1 [IIc-47, (5-Cyclopropyl-2H-pyrazol-3-yl)-[2-(3-phenylprop-1-ylamino)-quinazolin-4-yl]-amine]
20 |  | > 250 °C | 100 to 1000 nM |  | < 100 nM | c1ccc2c(Nc3cc(C4CC4)[nH]n3)nc(NCCC3CCCCC3)nc2c1 [IIc-29, [2-(2-Cyclohexylethylamino)-quinazolin-4-yl]-(5-cyclopropyl-2H-pyrazol-3-yl)-amine]
21 |  | > 250 °C | < 100 nM |  | < 100 nM | O=C(O)COc1ccc(Nc2nc(Nc3cc(C4CC4)[nH]n3)c3ccccc3n2)cc1 [IIc-30, [2-(4-Carboxymethoxyphenylamino)-quinazolin-4-yl]-(5-cyclopropyl-2H-pyrazol-3-yl)-amine]
22 |  | 120 °C | < 100 nM |  | < 100 nM | COc1ccc(Nc2nc(Nc3cc(C4CC4)[nH]n3)c3ccccc3n2)cn1 [IIc-20, (5-Cyclopropyl-2H-pyrazol-3-yl)-[2-(6-methoxypyridin-3-ylamino)-quinazolin-4-yl]-amine]
23 |  | 294 to 296 °C | 100 to 1000 nM |  | < 100 nM | CC(=O)Nc1ccc(Nc2nc(Nc3cc(C)[nH]n3)c3ccccc3n2)cc1C#N [IIc-57, [2-(4-Acetamido-3-cyanophenylamino)-quinazolin-4-yl]-(5-methyl-2H-pyrazol-3-yl)-amine]
